In patent publication US20210253598A1, “ARYL ANNULATED MACROCYCLIC INDOLE DERIVATIVES” (priority 2017, published 2021):
Counter-ions that a name gives are not always drawn. Like-named read-outs stand apart in the source and are kept apart here.

Experiments:
SUDHL10 [1] = assay: Induction of caspase-3/7 activity in SUDHL10 cells (Assay 4); assay type: cell-based; details: SUDHL10, 3 hours treatment, Caspase-Glo 3/7, median, read-out: Caspase SUDHL10 [M] (median)
Experimental: (§1) Induction of Caspase-3/7 Activity Upon Treatment of Cells with Selected Compounds
(§2) The BH3-domain of MCL-1 sequesters pro-apoptotic proteins, thereby inhibiting apoptosis. In contrast, MCL-1 inhibitors are expected to antagonize this effect leading to an increase in apoptosis, which can be determined by measuring the activity of caspase-3/7.
(§3) The activity of caspase-3/7 was determined in DLBCL (Diffuse large B-cell lymphoma) cell lines (SUDHL5 and SUDHL10) upon treatment with different compounds, using the Caspase-Glo® 3/7 reagent from Promega (G8092).
(§4) As a control, medium without cells was also added to the plate. Cells were incubated in a humidified incubator at 37° C. overnight.
(§5) Rim wells were excluded. The cells were incubated for 3 hours in a humidified incubator at 37° C. After this incubation, 30 μl of Caspase-Glo® 3/7 reagent (Promega G8092) was added to each well using the Multidrop Combi Reagent Dispenser, followed by 1 hour incubation at 37° C. Finally, luminescence was read at 0.1 ms, with a gain of 3000 using the PHERAstar FS microplate reader (BMG Labtech).
(§6) For the evaluation of the results, the background measured with “medium-only” was subtracted from all other values. Then, the values were normalized to DMSO-only treated cells (every value was divided by the mean of the DMSO control).

SUDHL10 [2] = assay: Induction of cytotoxicity in SUDHL10 cells, CellTiter-Glo (Assay 6); assay type: cell-based
Experimental: (§7) Induction of Cytotoxicity Upon Treatment of Cells with Selected Compounds
(§8) In principle, compounds that induce apoptosis will concomitantly induce cell cytotoxicity. Therefore, cytotoxicity assays were run in parallel in SUDHL5 and SUDHL10 cells.
(§9) As a control, medium without cells was also added to the plate. Cells were incubated in a humidified incubator at 37° C. overnight. […] Rim wells were excluded. The cells were incubated for 5 hours in a humidified incubator at 37° C. After this incubation, 30 μl of CellTiter-Glo® Luminescent Cell Viability reagent (Promega, G7573) was added to each well using the Multidrop Combi Reagent Dispenser, followed by 15 minutes incubation on a shaker at room temperature. Finally, luminescence was read at 0.1 ms, with a gain of 3000 using the PHERAstar FS microplate reader (BMG Labtech).

SUDHL5 [3] = assay: Induction of caspase-3/7 activity in SUDHL5 cells (Assay 4); assay type: cell-based; details: SUDHL5, 3 hours treatment, Caspase-Glo 3/7, median, read-out: Caspase SUDHL5 [M] (median)
Experimental: as §1, §2, §3, §4, §5, §6

SUDHL5 [4] = assay: Induction of cytotoxicity in SUDHL5 cells, CellTiter-Glo (Assay 6); assay type: cell-based
Experimental: as §7, §8, §9

MCL-1 = MCL-1 (Homo sapiens, UniProt Q07820, K194A/K197A/R201A); assay: Protein-protein interaction assay MCL-1/Noxa BH3 peptide, TR-FRET (MCL-1 assay, Assay 1); assay type: binding; details: MCL-1 Assay [M] (median), MBP-MCL-1 / Noxa BH3 peptide
Experimental: The dose-dependent inhibition by the compounds described in this invention of the interaction between MCL-1 and the BH3 domain of Noxa (both human) was determined using a steady state binding competition assay with time-resolved fluorescence energy transfer (TR-FRET) readout. For that purpose MCL-1 (amino acids 173-321, N-terminal fused to Maltose Binding Protein (MBP), SEQ ID 1) and a synthetic Noxa BH3-derived peptide of sequence Biotin-PEG2-PEG2-PAELEVE-Nva-[…]-amide (SEQ ID 2) served as protein receptor and tracer ligand respectively. The MBP-MCL-1 was purchased from Beryllium (Bedford, Mass., USA). The expression and purification of this protein construct has been described elsewhere (DOI:10.1371/journal.pone.0125010). The Noxa BH3-derived peptide can be obtained from e.g. Biosyntan (Berlin, Germany).
For that, 100-fold concentrated DMSO solutions were prepared by serial dilutions (1:3.4) of a 2 mM stock solution in a clear, 384-well microtiter plate (Greiner Bio-One, Frickenhausen, Germany). From there, 50 nl were transferred in a dark test plate (Greiner Bio-One, Frickenhausen, Germany). The assay was initiated by addition of 2 μl of a 2,5-fold concentrated MBP-MCL-1 solution (usually for a 1 nM end concentration in 5 μl reaction volume) in aqueous assay buffer [50 mM Tris/HCl pH 7, 100 mM sodium chloride (NaCl), 50 mM potassium fluoride (KF), 0.005% Tween-20, 2 mM DTT, 0.1% bovine gamma globulin (BGG)] to the compounds in the assay plate. This was followed by a 10-minute incubation step at 22° C. for pre-equilibration of the putative complex between MBP-MCL-1 and the compounds.
The mixture was incubated in the dark for one hour at 22° C. and then overnight at 4° C. The formation of MCL-1/Noxa complexes was determined by measuring the resonance energy transfer of the anti-MBP-Eu-cryptate antibody to the streptavidin-XL665 present in the reaction.
The resulting data (ratio) were normalized, taking 0% inhibition as the mean value of control measurements (usually 32 data points) where all reagents were included. In this case 50 nl DMSO were used instead of compounds. […] IC50 values were determined by regression analysis based on a 4 parameter equation (minimum, maximum, IC50, Hill; Y=Max+(Min−Max)/(1+(X/IC50)^Hill) using the Screener Software (Genedata).

[5] = SUDHL10, 5 hours incubation, median, read-out: Cytotox SUDHL10 [M] (median)
[6] = SUDHL5, 5 hours incubation, median, read-out: Cytotox SUDHL5 [M] (median)
[7] = Homo sapiens, SU-DHL10, 5 h, SUDHL10, 5 hours incubation, median, read-out: Cytotox SUDHL10 [M] (median)

MCL-1, sequence (Q07820 173-321 K194A/K197A/R201A, looked up): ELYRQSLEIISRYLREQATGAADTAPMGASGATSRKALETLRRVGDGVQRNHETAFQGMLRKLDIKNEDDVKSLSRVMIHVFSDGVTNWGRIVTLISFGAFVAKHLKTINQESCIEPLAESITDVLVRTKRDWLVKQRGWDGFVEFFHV

SMILES | EC50 (SUDHL10 [1]) [M] | IC50 (SUDHL10 [2]; [5]) [M] | EC50 (SUDHL5 [3]) [M] | IC50 (SUDHL5 [4]; [6]) [M] | IC50 (MCL-1) [M] | EC50 (SUDHL10 [1]; Homo sapiens, SU-DHL10, 3 h) [M] | IC50 (SUDHL10 [2]; [7]) [M] | EC50 (SUDHL5 [3]; Homo sapiens, SU-DHL-5, 3 h) [M] | IC50 (SUDHL10 [2]; read-out: Cytotox SUDHL10 [M] (median), SUDHL10, 5 hours incubation) | IC50 (SUDHL5 [4]; read-out: Cytotox SUDHL5 [M] (median), SUDHL5, 5 hours incubation)
Cc1c2c(nn1C)CN(S(=O)(=O)c1ccc(N3CCOCC3)nc1)Cc1ccccc1Cn1c(C(=O)O)c(CCCOc3cccc4ccccc34)c3cccc-2c31 (single isomer, unassigned; enantiomer 1) [Example 18, (+)-4,5-Dimethyl-8-{[6-(morpholin-4-yl)pyridin-3-yl]sulfonyl}-17-[3-(naphthalen-1-yloxy)propyl]-7,8,9,14-tetrahydro-5H-indolo[1,7-bc]pyrazolo[4,3-e][2,8]benzodiazacycloundecine-16-carboxylic Acid (Enantiomer 1)] | 5.2e-06 | 3.8e-06 | 9.2e-07 | 1.4e-06 | 2.9e-08 | – | – | – | – | –
Cc1c2c(nn1C)CN(C(=O)CC1CCOCC1)Cc1ccccc1Cn1c(C(=O)O)c(CCCOc3cccc4ccccc34)c3cccc-2c31 (single isomer, unassigned; enantiomer 1) [Example 22, (−)-4,5-Dimethyl-17-[3-(naphthalen-1-yloxy)propyl]-8-(tetrahydro-2H-pyran-4-ylacetyl)-7,8,9,14-tetrahydro-5H-indolo[1,7-bc]pyrazolo[4,3-e][2,8]benzodiazacycloundecine-16-carboxylic Acid (Enantiomer 1)] | > 3.3e-05 | > 3.3e-05 | 1.4e-05 | 1.7e-05 | 6.5e-07 | – | – | – | – | –
Cc1c2c(nn1C)CN(C(=O)NC1CCOCC1)Cc1ccccc1Cn1c(C(=O)O)c(CCCOc3cccc4ccccc34)c3cccc-2c31 (single isomer, unassigned; enantiomer 1) [Example 25, (+)-4,5-Dimethyl-17-[3-(naphthalen-1-yloxy)propyl]-8-(tetrahydro-2H-pyran-4-ylcarbamoyl)-7,8,9,14-tetrahydro-5H-indolo[1,7-bc]pyrazolo[4,3-e][2,8]benzodiazacycloundecine-16-carboxylic Acid (Enantiomer 1)] | – | – | – | > 3.3e-05 | 2.6e-07 | > 3.3e-05 | > 3.3e-05 | > 3.3e-05 | – | –
Cc1c2c(nn1C)CN(C(=O)NCC1CCOCC1)Cc1ccccc1Cn1c(C(=O)O)c(CCCOc3cccc4ccccc34)c3cccc-2c31 (single isomer, unassigned; enantiomer 1) [Example 28, (+)-4,5-Dimethyl-17-[3-(naphthalen-1-yloxy)propyl]-8-[(tetrahydro-2H-pyran-4-ylmethyl)carbamoyl]-7,8,9,14-tetrahydro-5H-indolo[1,7-bc]pyrazolo[4,3-e][2,8]benzodiazacycloundecine-16-carboxylic Acid (Enantiomer 1)] | – | – | > 3.3e-05 | > 3.3e-05 | 2.8e-07 | > 3.3e-05 | > 3.3e-05 | – | – | –
Cc1c2c(nn1C)CNCc1ccccc1Cn1c(C(=O)O)c(CCCOc3cccc4ccccc34)c3cccc-2c31 (single isomer, unassigned; enantiomer 2) [Example 13, 4,5-Dimethyl-17-[3-(naphthalen-1-yloxy)propyl]-7,8,9,14-tetrahydro-5H-indolo[1,7-bc]pyrazolo-[4,3-e][2,8]benzodiazacycloundecine-16-carboxylic acid-Trifluoroacetic Acid Salt (Enantiomer 2)] | > 3.3e-05 | – | 1.4e-05 | – | 1.7e-07 | – | – | – | 2.5e-05 | 1.7e-05
Cc1c2c(nn1C)CN(S(=O)(=O)c1ccc(N3CCOCC3)nc1)Cc1ccccc1Cn1c(C(=O)O)c(CCCOc3cccc4ccccc34)c3cccc-2c31 (single isomer, unassigned; enantiomer 2) [Example 19, (−)-4,5-Dimethyl-8-{[6-(morpholin-4-yl)pyridin-3-yl]sulfonyl}-17-[3-(naphthalen-1-yloxy)propyl]-7,8,9,14-tetrahydro-5H-indolo[1,7-bc]pyrazolo[4,3-e][2,8]benzodiazacycloundecine-16-carboxylic Acid (Enantiomer 2)] | > 3.3e-05 | > 3.3e-05 | 1.7e-05 | 2.3e-05 | 9.4e-07 | – | – | – | – | –
Cc1c2c(nn1C)CN(C(=O)CC1CCOCC1)Cc1ccccc1Cn1c(C(=O)O)c(CCCOc3cccc4ccccc34)c3cccc-2c31 (single isomer, unassigned; enantiomer 2) [Example 23, (+)-4,5-Dimethyl-17-[3-(naphthalen-1-yloxy)propyl]-8-(tetrahydro-2H-pyran-4-ylacetyl)-7,8,9,14-tetrahydro-5H-indolo[1,7-bc]pyrazolo[4,3-e][2,8]benzodiazacycloundecine-16-carboxylic Acid (Enantiomer 2)] | 1.2e-05 | 1.1e-05 | 4.2e-06 | 4.4e-06 | 3.9e-08 | – | – | – | – | –
Cc1c2c(nn1C)CN(C(=O)NC1CCOCC1)Cc1ccccc1Cn1c(C(=O)O)c(CCCOc3cccc4ccccc34)c3cccc-2c31 (single isomer, unassigned; enantiomer 2) [Example 26, (−)-4,5-Dimethyl-17-[3-(naphthalen-1-yloxy)propyl]-8-(tetrahydro-2H-pyran-4-ylcarbamoyl)-7,8,9,14-tetrahydro-5H-indolo[1,7-bc]pyrazolo[4,3-e][2,8]benzodiazacycloundecine-16-carboxylic Acid (Enantiomer 2)] | > 3.3e-05 | > 3.3e-05 | 1.8e-05 | 1.6e-05 | 3.8e-08 | – | – | – | – | –
Cc1c2c(nn1C)CN(C(=O)NCC1CCOCC1)Cc1ccccc1Cn1c(C(=O)O)c(CCCOc3cccc4ccccc34)c3cccc-2c31 (single isomer, unassigned; enantiomer 2) [Example 29, (−)-4,5-Dimethyl-17-[3-(naphthalen-1-yloxy)propyl]-8-[(tetrahydro-2H-pyran-4-ylmethyl)carbamoyl]-7,8,9,14-tetrahydro-5H-indolo[1,7-bc]pyrazolo[4,3-e][2,8]benzodiazacycloundecine-16-carboxylic Acid (Enantiomer 2)] | 2.3e-05 | 2.3e-05 | 1e-05 | 1.4e-05 | 3e-08 | – | – | – | – | –
